In patent US9409892B2, “4-hydroxy-isoquinoline compounds as HIF hydroxylase inhibitors” (FIBROGEN, INC., priority 2012, dated 2016):
Values joined by “and” are separate entries in the source; they are usually repeats but may differ in a detail not shown here. Identical values can stand only once. Like-named read-outs stand apart in the source and are kept apart here.

Legend:
PHD1 (EGLN2) = PHD1 (EGLN2) (Homo sapiens (Human), UniProt Q96KS0); test: HIF-PH assay (14CO2 capture), PHD1 enzyme inhibition; assay type: biochemical
Description: (§1) Ketoglutaric acid α-[1-^14C]-sodium salt, alpha-ketoglutaric acid sodium salt, and HPLC purified peptide may be obtained from commercial sources, e.g., Perkin-Elmer (Wellesley Mass.), Sigma-Aldrich, and SynPep Corp. (Dublin Calif.), respectively. Peptides for use in the assay may be fragments of HIFα as described above or as disclosed in International Publication WO 2005/118836, incorporated by reference herein. HIF-pH, e.g., PHD1 (EGLN2) or PHD2 (EGLN1), can be expressed in, e.g., insect Hi5 cells, and partially purified, e.g., through a SP ion exchange chromatography column. Enzyme activity is determined by capturing ^14CO2 using an assay described by Kivirikko and Myllyla (1982, Methods Enzymol. 82:245-304). Assay reactions contain 50 mM HEPES (pH 7.4), 100 μM α-ketoglutaric acid sodium salt, 0.30 mCi/mL ketoglutaric acid α-[1-^14C]-sodium salt, 40 μM FeSO4, 1 mM ascorbate, 1541.8 units/mL Catalase, with or without 50 μM peptide substrate and various concentrations of compound of the invention. Reactions are initiated by addition of HIF-PH enzyme.
(§2) The peptide-dependent percent turnover is calculated by subtracting percent turnover in the absence of peptide from percent turnover in the presence of substrate peptide. Percent inhibition and IC50 are calculated using peptide-dependent percent turnover at given inhibitor concentrations. Calculation of IC50 values for each inhibitor is conducted using GraFit software (Erithacus Software Ltd., Surrey UK).
(§3) The PHD2/PHD1 is the ratio of the IC50 of the compound for each enzyme.

PHD2 (EGLN1) = PHD2 (EGLN1) (Homo sapiens (Human), UniProt Q9GZT9); test: HIF-PH assay (14CO2 capture), PHD2 enzyme inhibition; assay type: biochemical; settings: Table 1
Description: as §1, §2, §3

[1] = Table 1, individual measurement, read-out: IC50 (μM) PHD1
[2] = Table 1, ratio of the IC50 of the compound for each enzyme
[3] = individual measurement, read-out: IC50 (μM) PHD2

Chain of PHD2 (EGLN1) (Q9GZT9 whole entry): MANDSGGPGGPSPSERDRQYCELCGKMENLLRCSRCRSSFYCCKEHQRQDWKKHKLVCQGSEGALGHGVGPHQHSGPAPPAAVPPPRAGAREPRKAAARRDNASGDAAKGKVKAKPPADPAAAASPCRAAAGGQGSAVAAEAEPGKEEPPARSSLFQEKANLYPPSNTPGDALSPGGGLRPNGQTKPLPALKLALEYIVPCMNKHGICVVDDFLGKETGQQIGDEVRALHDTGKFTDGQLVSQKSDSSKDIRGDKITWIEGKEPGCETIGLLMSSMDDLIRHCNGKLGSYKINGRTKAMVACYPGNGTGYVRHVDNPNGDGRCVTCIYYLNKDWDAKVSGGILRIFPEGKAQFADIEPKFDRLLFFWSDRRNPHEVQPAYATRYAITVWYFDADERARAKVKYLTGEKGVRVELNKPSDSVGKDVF
Chain of PHD1 (EGLN2) (Q96KS0 whole entry, the tested form may be a part): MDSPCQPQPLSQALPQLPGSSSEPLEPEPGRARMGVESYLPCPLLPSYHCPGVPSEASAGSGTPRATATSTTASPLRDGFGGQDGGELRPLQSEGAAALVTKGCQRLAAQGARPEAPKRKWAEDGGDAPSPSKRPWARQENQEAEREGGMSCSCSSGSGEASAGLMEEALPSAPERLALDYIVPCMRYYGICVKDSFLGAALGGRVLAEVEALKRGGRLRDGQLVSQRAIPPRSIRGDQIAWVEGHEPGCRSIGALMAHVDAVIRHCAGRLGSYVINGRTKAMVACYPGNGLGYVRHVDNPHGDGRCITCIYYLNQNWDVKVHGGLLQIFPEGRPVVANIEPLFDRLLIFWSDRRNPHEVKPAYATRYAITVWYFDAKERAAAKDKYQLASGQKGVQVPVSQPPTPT

| SMILES | IC50 (PHD1 (EGLN2); [1]) | PHD2/PHD1 (PHD1 (EGLN2); [2]) | IC50 (PHD2 (EGLN1); [3]) | IC50 (PHD1 (EGLN2); Table 1, average of multiple independent measurements, read-out: IC50 (μM) PHD1 avg.) [µM] | PHD2/PHD1 avg. (PHD1 (EGLN2); Table 1, average of the ratios of multiple independent measurements) [avg.] | IC50 (PHD2 (EGLN1); average of multiple independent measurements, read-out: IC50 (μM) PHD2 avg.) [µM] | PHD2/PHD1 (PHD1 (EGLN2); Table 2 comparative data, IC50 PHD2/IC50 PHD1) |
| --- | --- | --- | --- | --- | --- | --- | --- |
| CC(C)(CNC(=O)c1ncc2cc(Oc3ccc(Cl)c(F)c3)ccc2c1O)C(=O)O [Compound 23, 3-{[7-(4-Chloro-3-fluoro-phenoxy)-4-hydroxy-isoquinoline-3-carbonyl]-amino}-2,2-dimethyl-propionic acid] | 2.77 µM | 5 | 12.7 µM |  |  |  |  |
| CC(C)(CNC(=O)c1nc(C#N)c2cc(NC(=O)Nc3ccccc3)ccc2c1O)C(=O)O [Compound 140, 3{-[1-Cyano-4-hydroxy-7-(3-phenyl-ureido)-isoquinoline-3-carbonyl]-amino}-2,2-dimethyl-propionic acid] | 2.81 µM | 12 | 33.5 µM |  |  |  |  |
| N#Cc1c2cc(Oc3ccccc3)ccc2c(O)c(C(=O)NCCCC(=O)O)[n+]1[O-] [Compound 158, 3-(3-Carboxypropylcarbamoyl)-1-cyano-4-hydroxy-7-phenoxyisoquinoline 2-oxide] | 1.66 µM | 13 | 21 µM |  |  |  |  |
| CC(C)(CNC(=O)c1nc(C#N)c2cc(Oc3cccnc3)ccc2c1O)C(=O)O [Compound 27, 3{-[1-Cyano-4-hydroxy-7-(pyridin-3-yloxy)-isoquinoline-3-carbonyl]-amino}-2,2-dimethyl-propionic acid] | 3.27 µM | 10 | 33.3 µM |  |  |  |  |
| N#Cc1nc(C(=O)N[C@H](CCc2ccccc2)CC(=O)O)c(O)c2ccc(Oc3ccccc3)cc12 [Compound 107, 3-(R)-[(1-Cyano-4-hydroxy-7-phenoxy-isoquinoline-3-carbonyl)-amino]-5-phenyl-pentanoic acid] | 2.46 µM and 2.28 µM | 4 and 6 | 9.28 µM and 14.4 µM | 2.37 | 5 | 11.8 |  |
| O=C(Nc1ccccc1)Nc1ccc2c(O)c(C(=O)NC[C@H](O)C(=O)O)ncc2c1 [Compound 117, (S)-2-Hydroxy-3-{[4-hydroxy-7-(3-phenyl-ureido)-isoquinoline-3-carbonyl]-amino}-propionic acid] | 4.66 µM | 11 | 51.4 µM |  |  |  |  |
| CC(CC(=O)O)NC(=O)c1nc(C#N)c2cc(Oc3ccccc3)ccc2c1O (stereo not shown) [Compound 11, 3-[(1-Cyano-4-hydroxy-7-phenoxy-isoquinoline-3-carbonyl)-amino]butyric acid] | 1.37 µM | 41 | 56.6 µM |  |  |  | 41 |
| N#Cc1nc(C(=O)NC(CC(=O)O)c2cccnc2)c(O)c2ccc(Oc3ccccc3)cc12 (stereo not shown) [Compound 174, 3-[(1-Cyano-4-hydroxy-7-phenoxy-isoquinoline-3-carbonyl)-amino]-3-pyridin-3-yl-propionic acid] | 6.75 µM | 6 | 39.4 µM |  |  |  |  |
| CC(C)(CNC(=O)c1nc(C#N)c2ccc(Oc3ccccc3)cc2c1O)C(=O)O [Compound 123, 3-[(1-Cyano-4-hydroxy-6-phenoxy-isoquinoline-3-carbonyl)-amino]-2,2-dimethyl-propionic acid] | 6.11 µM | 30 | 183 µM |  |  |  |  |
| N#Cc1nc(C(=O)NCC2(C(=O)O)CCC2)c(O)c2ccc(S(=O)(=O)C3CCCCC3)cc12 [Compound 161, 1-{[(1-Cyano-7-cyclohexanesulfonyl-4-hydroxy-isoquinoline-3-carbonyl)-amino]-methyl}-cyclobutanecarboxylic acid] | 19.8 µM | 10 | 200 µM |  |  |  |  |
| O=C(NCC1(C(=O)O)CCOCC1)c1ncc2cc(Oc3ccccc3)ccc2c1O [Compound 15, 4-{[(4-Hydroxy-7-phenoxy-isoquinoline-3-carbonyl)-amino]-methyl}-tetrahydro-pyran-4-carboxylic acid] | 9.71 µM | 5 | 51.5 µM |  |  |  |  |
| N#Cc1nc(C(=O)N[C@@H](CC(=O)O)c2ccccc2F)c(O)c2ccc(Oc3ccccc3)cc12 [Compound 170, 3-(S)-[(1-Cyano-4-hydroxy-7-phenoxy-isoquinoline-3-carbonyl)-amino]-3-(2-fluoro-phenyl)-propionic acid] | 2.76 µM | 12 | 32.2 µM |  |  |  |  |
| CC(C)CC(CNC(=O)c1nc(C#N)c2cc(Oc3ccccc3)ccc2c1O)CC(=O)O (stereo not shown) [Compound 183, 3-{[(1-Cyano-4-hydroxy-7-phenoxy-isoquinoline-3-carbonyl)-amino]-methyl}-5-methyl-hexanoic acid] | 1.63 µM | 8 | 12.6 µM |  |  |  |  |
| CC(C)(CC(=O)O)NC(=O)c1nc(C#N)c2cc(OCc3ccccc3)ccc2c1O [Compound 152, 3-[(7-Benzyloxy-1-cyano-4-hydroxy-isoquinoline-3-carbonyl)-amino]-3-methyl-butyric acid] | 4.35 µM | 13 | 55.1 µM |  |  |  |  |
| N#Cc1nc(C(=O)NCC(C(=O)O)C2CC2)c(O)c2ccc(Oc3c(F)cccc3F)cc12 (stereo not shown) [Compound 180, 3{-[1-Cyano-7-(2,6-difluoro-phenoxy)-4-hydroxy-isoquinoline-3-carbonyl]-amino}-2-cyclopropyl-propionic acid] | 4.57 µM | 6 | 28.9 µM |  |  |  |  |
| O=C(O)CCCNC(=O)c1ncc2cc(NC(=O)Nc3ccccc3)ccc2c1O [Compound 119, 4-{[4-Hydroxy-7-(3-phenyl-ureido)-isoquinoline-3-carbonyl]-amino}-butyric acid] | 12.6 µM | 6 | 72.3 µM |  |  |  |  |
| CC(C)(CNC(=O)c1ncc2cc(Cc3ccccc3)ccc2c1O)C(=O)O [Compound 146, 3-[(7-Benzyl-4-hydroxy-isoquinoline-3-carbonyl)-amino]-2,2-dimethyl-propionic acid] | 23.7 µM | 8 | 181 µM |  |  |  |  |

The remaining compounds from weak to strong by IC50 (PHD1 (EGLN2); [1]), led by results:

| IC50 (PHD1 (EGLN2); [1]) | PHD2/PHD1 (PHD1 (EGLN2); [2]) | IC50 (PHD2 (EGLN1); [3]) | IC50 (PHD1 (EGLN2); Table 1, average of multiple independent measurements, read-out: IC50 (μM) PHD1 avg.) [µM] | PHD2/PHD1 avg. (PHD1 (EGLN2); Table 1, average of the ratios of multiple independent measurements) [avg.] | IC50 (PHD2 (EGLN1); average of multiple independent measurements, read-out: IC50 (μM) PHD2 avg.) [µM] | PHD2/PHD1 (PHD1 (EGLN2); Table 2 comparative data, IC50 PHD2/IC50 PHD1) | SMILES |
| --- | --- | --- | --- | --- | --- | --- | --- |
| 1.33 µM | 18.6 | 24.7 µM |  |  |  |  | CCNC(=O)N[C@H](CCNC(=O)c1nc(C#N)c2cc(Oc3ccccc3)ccc2c1O)C(=O)O [Compound 52, (R)-4-(1-Cyano-4-hydroxy-7-phenoxyisoquinoline-3-carboxamido)-2-(3-ethylureido)butanoic acid] |
| 1.28 µM | 24 | 30.2 µM |  |  |  |  | N#Cc1nc(C(=O)N[C@@H](CC(=O)O)c2ccccc2)c(O)c2ccc(Oc3ccccc3)cc12 [Compound 47, (S)-3-[(1-Cyano-4-hydroxy-7-phenoxy-isoquinoline-3-carbonyl)-amino]-3-phenyl-propionic acid] |
| 1.13 µM | 21 | 24.1 µM |  |  |  |  | CC(C)(CNC(=O)c1nc(C#N)c2cc(-c3ccccc3)ccc2c1O)C(=O)O [Compound 138, 3-[(1-Cyano-4-hydroxy-7-phenyl-isoquinoline-3-carbonyl)-amino]-2,2-dimethyl-propionic acid] |
| 0.94 µM | 22 | 20.8 µM |  |  |  |  | CC(C)(CCC(=O)O)NC(=O)c1nc(C#N)c2cc(Oc3ccccc3)ccc2c1O [Compound 46, 4-(1-Cyano-4-hydroxy-7-phenoxyisoquinoline-3-carboxamido)-4-methylpentanoic acid] |
| 0.74 µM | 5 | 3.38 µM |  |  |  |  | C[C@](O)(CNC(=O)c1nc(C#N)c2cc(Oc3ccccc3)ccc2c1O)C(=O)O [Compound 73, (S)-3-(1-Cyano-4-hydroxy-7-phenoxyisoquinoline-3-carboxamido)-2-hydroxy-2-methylpropanoic acid] |
| 0.35 µM | 15 | 5.22 µM |  |  |  |  | COc1ccc(Oc2ccc3c(O)c(C(=O)NCC(C)(C)C(=O)O)nc(C#N)c3c2)cc1 [Compound 20, 3{-[1-Cyano-4-hydroxy-7-(4-methoxy-phenoxy)-isoquinoline-3-carbonyl]-amino}-2,2-dimethyl-propionic acid] |
| 0.28 µM | 14 | 3.88 µM |  |  |  |  | C[C@H](CNC(=O)c1nc(C#N)c2cc(Oc3ccccc3)ccc2c1O)C(=O)O [Compound 92, 3-[(1-Cyano-4-hydroxy-7-phenoxy-isoquinoline-3-carbonyl)-amino]-2-(R)-methyl-propionic acid] |
| 0.18 µM | 11 | 1.97 µM |  |  |  |  | CC(C)(CNC(=O)c1nc(C#N)c2cc(Oc3cccc(Cl)c3)ccc2c1O)C(=O)O [Compound 39, 3-{[7-(3-Chloro-phenoxy)-1-cyano-4-hydroxy-isoquinoline-3-carbonyl]-amino}-2,2-dimethyl-propionic acid] |
| 0.16 µM | 15 | 2.4 µM |  |  |  |  | C[C@@H](CNC(=O)c1nc(C#N)c2cc(Oc3ccccc3)ccc2c1O)C(=O)O [Compound 93, 3-[(1-Cyano-4-hydroxy-7-phenoxy-isoquinoline-3-carbonyl)-amino]-2-(S)-methyl-propionic acid] |
